From patent US10160705B2, “Class of HDAC inhibitors expands the renal progenitor cells population and improves the rate of recovery from acute kidney injury” (University of Pittsburgh—Of the Commonwealth System of …, priority 2011, dated 2018) come the findings set out here.

For series [1], the system named is zebrafish embryos. The experiment in a line: Phenotypic screen for edema and survival in zebrafish larvae at 72 hpf. To be noted: number of larvae (of 36); 3 μM from 2 hpf, scored at 72 hpf. How it is done: The screen was performed in zebrafish embryos using the National Cancer Institute's Developmental Therapeutics Program (NCI/DTP) Diversity Set I. This library contains 1990 compounds selected by pharmacophore modeling to represent the more than 140,000 small molecules maintained in the NCI/DTP Open Repository. Compounds from the NCI/DTP Diversity Set I were diluted to 10 μM in E3 embryo medium (5 mM NaCl, 0.33 mM CaCl2, 0.33 mM MgSO4, and 0.17 mM KCl) in a final DMSO concentration of 0.5% and arrayed in 96-well plates. Beginning at approximately 2 hpf, embryos were transferred to each well in groups of five using a glass pipette. The plates were incubated at 28.5° C. for 70 hours. Individual wells were then scored for a dominant phenotype, representative of at least four of the five embryos. The primary objective was to identify compounds that caused edema in treated embryos at 72 hpf. Small molecules generating edema were retested once for verification, before obtaining additional compound from the NCI/DTP Open Repository.
PTBA was synthesized as described below. Hydroxyurea and aphidicolin were obtained from Sigma-Aldrich. Groups of 20 to 30 chorionated 2 hpf embryos were arrayed in individual wells of 12-well plates. E3 medium was removed with a glass pipette and replaced with 1.5 ml treatment solutions containing 0.5% DMSO in E3 with or without compound at the reported concentrations. Treatments for all studies were initiated at 2 hpf, except for the temporal studies (FIG. 6) and the HUA studies (FIG. 11). HUA studies were performed as described previously (Zhang, L., et al. Cell cycle progression is required for zebrafish somite morphogenesis but not segmentation clock function. Development 135, 2065-2070, (2008)), with the following modifications. HUA in 0.5% DMSO was added at early gastrulation (5 hpf) and PTBA was subsequently added at late gastrulation (8 hpf) to allow for penetration of the proliferation inhibitors. All embryos were incubated at 28.5° C. until the required developmental stage.
Following 70 hours of treatment (as described above), edemic phenotypes in 72 hpf larvae were scored using a phenotype-based classification system. Wild type: no visible edema or developmental delay. […] Significant effects (p<0.05) on survival were determined by two-tailed Fisher's exact test in comparison with the 0 μM PTBA treatment group.
PTBA and methyl-4-(phenylthio)butanoate were synthesized as described above. 4-(Naphthalen-2-ylthio)butanoic acid (NSC2733) and 3-(phenylthio)benzoic acid (NSC113994), were obtained from the NCI/DTP Open Repository. APHA compound 8, Apicidin, butanoic acid, PBA, 4-phenoxybutanoic acid, 5-phenylpentanoic acid, Scriptaid, TSA, and valproic acid were obtained from Sigma-Aldrich. MS-275 and SAHA were obtained from Cayman Chemical Co. 4-(phenylsulfonyl)butanoic acid was obtained from Matrix Scientific. Tubacin was a gift of Dr. Ralph Mazitschek of the Broad Institute (Cambridge, Mass.). The remaining PTBA analogs were synthesized. Three independent groups of 12 chorionated 2 hpf embryos were arrayed in individual wells of 24-well plates. E3 medium was removed with a glass pipette and replaced with 800 μl treatment solutions containing 0.5% DMSO in E3 with or without compound at the reported concentrations.
Phenotypic screening of PTBA analogs was performed identically to the concentration-response experiments detailed above. Embryos were treated with each PTBA analog from 2 to 72 hpf as described above.

Series [2] relates to renal progenitor cells. The experiment in a line: In situ hybridization for lhx1a expression in 10-somite embryos (renal progenitor cell expansion). As to conditions: for responders at 3 µM / responders at 0.2 µM / responders at 0.4 µM / responders at 0.8 µM / responders at 1.5 µM / pEC50: Danio rerio; for responders at 0.2 µM: 200 nM, read-out: Expansion of Cells (including repeats* and recounts**) 200 nM; for responders at 0.4 µM: 400 nM, read-out: Expansion of Cells (including repeats* and recounts**) 400 nM; for responders at 0.8 µM: 800 nM, read-out: Expansion of Cells (including repeats* and recounts**) 800 nM; for responders at 1.5 µM: read-out: Expansion of Cells (including repeats* and recounts**) 1.5 μM; for pEC50: first pass EC50 from percent expansion (Excel trendline), average where several experiments. It counts as in vivo. How it is done: PTBA was synthesized as described below. Hydroxyurea and aphidicolin were obtained from Sigma-Aldrich.
In situ hybridization and immunocytochemistry: In situ hybridization was performed as previously described with some modifications.142 Hybridization temperature was 65° C. Embryos were blocked in 2% blocking reagent (Roche) with 5% sheep serum in MAB (100 mM maleic acid and 150 mM NaCl [pH 7.5]). Whole-mount immunocytochemistry with 1:25 mouse anti-α6F antibody (Developmental Studies Hybridoma Bank) and 1:100 Cy3 secondary antibody (Jackson ImmunoResearch) was performed as described previously.108 Embryos were embedded in JB-4 for sectioning per the manufacturer's instructions (Polysciences), sectioned at 5 μm, and mounted with Cytoseal 60 (Richard-Allan Scientific).
The remaining PTBA analogs were synthesized.
In situ hybridization for lhx1a was performed as described above. […] Compounds were classified as effective, partially-effective or ineffective based on comparison to the effects of PTBA at a given concentration.
Testing of the compounds is on-going, but for those tested, Table 6 provides first pass EC50s based upon colormetric in situ hybridizations for the Lhx1a mRNA expression levels. After the procedure is run, in situ hybridization is done for the lhx1 mRNA expression and the number of embryos that show an expanded kidney field is manually counted to establish the percent of embryos showing expansion. Then the EC50 is determined by plotting the percent expansion in Excel, graphing the results and using the trendline function to determine the 50 percent point.

Setting [3] is: 3 μM from 2 hpf, 10-somite embryos.
The mark [4] stands for this setting: 3 μM from 2 hpf, 10-somite embryos, read-out: lhx1a expansion, percent of treated embryos.
The mark [5] stands for this setting: percent of embryos with expanded kidney field.
[6] abbreviates: percent of embryos with expanded kidney field, 1.5 μM.
Where [7] appears, read: percent of embryos with expanded kidney field, 3 μM, read-out: Expansion of Cells (including repeats* and recounts**) 3 μM.

pEC50: −log10 of the molar value. Like-named read-outs stand apart in the source and are kept apart here.

Consider `O=C(O)c1cccc(Sc2ccccc2)c1` [3-(phenylthio)benzoic acid, reference compound], for which, in series [1], the Dead is 0, the “Edemic 1 (E1)” value amounted to 34, the “Edemic 2 (E2)” value is recorded as 0 and the “Edemic 3 (E3)” value is 0. In series [1], the “Wild-type (WT)” value is given as 2. In series [2] (setting [3]), the “Lhx1a expansion caused by analog treatment, 3 μM” value is on record as “−” and the “lhx1a expansion, percent of treated embryos” value is given as “no expansion”.

Regarding `O=C(O)CCCSc1ccc2ccccc2c1` [4-(naphthalen-2-ylthio)butanoic acid, 4-(Naphthalen-2-ylthio)butanoic acid, reference compound], in series [1], the Dead amounted to 2, the “Edemic 1 (E1)” value was found to be 9, the “Edemic 2 (E2)” value amounted to 0 and the “Edemic 3 (E3)” value is 0. In series [1], the “Wild-type (WT)” value turned out to be 25. For the same compound, the “Lhx1a expansion caused by analog treatment, 3 μM” value in series [2] (setting [3]) is recorded as “−”. Also, the “lhx1a expansion, percent of treated embryos” value in series [2] (3 μM from 2 hpf, 10-somite embryos, listed as 4-(napthalen-2-ylthio)butanoic acid) is reported as “no expansion”. Also, the responders at 3 µM in series [2] (setting [4]) was determined as 33%.

Turning to `O=C(O)CCCOc1ccccc1` [4-phenoxybutanoic acid, reference compound], in series [1], the Dead was determined as 0, the “Edemic 1 (E1)” value worked out at 0, the “Edemic 2 (E2)” value came out at 0 and the “Edemic 3 (E3)” value is recorded as 0. For the same compound, the “Wild-type (WT)” value in series [1] turned out to be 36. Besides, the “Lhx1a expansion caused by analog treatment, 3 μM” value in series [2] (setting [3]) is on record as “−”. Further, the responders at 3 µM in series [2] (setting [4]) was found to be 13%.

As to `COC(=O)CCCCCS(=O)(=O)c1ccc2ccccc2c1` [UPHD-00063, methyl 6-(naphthalen-2-ylsulfonyl)hexanoate], in series [2] (setting [5]), the responders at 0.2 µM was found to be 10%, the responders at 0.4 µM amounted to 5% and the responders at 0.8 µM stood at 0%. For the same compound, the responders at 1.5 µM in series [2] (setting [6]) is 0%. Also, the responders at 3 µM in series [2] (setting [7]) was determined as 6%. In addition, the pEC50 in series [2] is below 5.52.

Take `COC(=O)CCCCCSc1ccccn1` [UPHD-00065, methyl 6-(pyridin-2-ylsulfanyl)hexanoate]: in series [2] (setting [5]), the responders at 0.2 µM was 0%, the responders at 0.4 µM stood at 20% and the responders at 0.8 µM came out at 6%. For the same compound, the responders at 1.5 µM in series [2] (setting [6]) was found to be 11%. Also, in series [2] (setting [7]), the responders at 3 µM was found to be 29%. In series [2], this compound had a pEC50 below 5.52.

For `Nc1ccccc1NC(=O)CCCCCS(=O)(=O)c1ccc2ccccc2c1` [UPHD-00066, N-(2-aminophenyl)-6-(naphthalene-2-sulfonyl)hexanamide], in series [2] (setting [5]), the responders at 0.2 µM was 0%, the responders at 0.4 µM worked out at 0% and the responders at 0.8 µM amounted to 5%. Besides, in series [2] (setting [6]), the responders at 1.5 µM stood at 11%. Further, the responders at 3 µM in series [2] (setting [7]) worked out at 10%. Moreover, the pEC50 in series [2] is below 5.52.

Turning to `O=C(NO)c1ccc(CCSc2ccc(F)cc2)cc1` [UPHD-00067, 4-{2[(4-fluoro-phenyl)sulfanyl]ethyl}-N-hydroxybenzamide], the responders at 0.2 µM in series [2] (setting [5]) is 17%. In addition, in series [2] (setting [7]), the responders at 3 µM came out at 20%. The pEC50 in series [2] is 6.10.

Consider `O=C(CCCCCS(=O)(=O)c1ccc2ccccc2c1)NO` [UPHD-00069, N-hydroxy-6-(naphthalene-2-sulfonyl)hexanamide], for which, in series [2] (setting [5]), the responders at 0.2 µM was 0%, the responders at 0.4 µM was 0% and the responders at 0.8 µM amounted to 0%. Also, the responders at 1.5 µM in series [2] (setting [6]) is 0%. In addition, the responders at 3 µM in series [2] (setting [7]) amounted to 0%. This compound gave a pEC50 in series [2] below 5.52.

Regarding `O=C(CCCCCSc1nc2ccccc2s1)NO` [UPHD-00070, 6-(1,3-benzothiazol-2-ylsulfanyl)-N-hydroxyhexanamide], in series [2] (setting [5]), the responders at 0.2 µM amounted to 0%, the responders at 0.4 µM stood at 0% and the responders at 0.8 µM came to 0%. Also, the responders at 1.5 µM in series [2] (setting [6]) came to 0%. In addition, in series [2] (setting [7]), the responders at 3 µM was 0%. Further, the pEC50 in series [2] is below 5.52.

For the compound `Nc1ccccc1NC(=O)CCCCCSc1nc2ccccc2s1` [UPHD-00071, N-(2-aminophenyl)-6-(1,3-benzothiazol-2-ylsulfanyl)hexanamide], in series [2] (setting [5]), the responders at 0.2 µM worked out at 12%, the responders at 0.4 µM amounted to 42% and the responders at 0.8 µM stood at 74%. Moreover, the responders at 1.5 µM in series [2] (setting [6]) was 26%. Moreover, in series [2] (setting [7]), the responders at 3 µM stood at 70%.

As for `Nc1ccccc1NC(=O)CCCCCSc1ncccn1` [UPHD-00072, N-(2-aminophenyl)-6-(pyrimidin-2-ylsulfanyl)hexanamide], in series [2] (setting [5]), the responders at 0.2 µM is 0%, the responders at 0.4 µM was found to be 0% and the responders at 0.8 µM came out at 5%. For the same compound, the responders at 1.5 µM in series [2] (setting [6]) is 5%. Also, in series [2] (setting [7]), the responders at 3 µM came out at 5%. The pEC50 in series [2] was below 5.52.

For `Nc1ccccc1NC(=O)CCCCCSc1ccccn1` [UPHD-00073, N-(2-aminophenyl)-6-(pyridin-2-ylsulfanyl)hexanamide], in series [2] (setting [5]), the responders at 0.2 µM stood at 5%, the responders at 0.4 µM was 10% and the responders at 0.8 µM was determined as 0%. Further, the responders at 1.5 µM in series [2] (setting [6]) is 20%. For the same compound, in series [2] (setting [7]), the responders at 3 µM stood at 30%. The compound also had a pEC50 in series [2] below 5.52.

Consider `O=C(CCCCCSc1ccc(F)cc1)Nc1ccccc1O` [UPHD-00077, 6-[(4-fluoro-phenyl)sulfanyl]-N-(2-hydroxyphenyl)hexanamide], for which, in series [2] (setting [5]), the responders at 0.2 µM was 40%, the responders at 0.4 µM is 100% and the responders at 0.8 µM was found to be 100%. The same compound showed a pEC50 in series [2] of 6.64. Besides, the “Expansion of Cells (including repeats* and recounts**) 1.5 μM” value in series [2] (setting [6]) is listed as “ND (All Dead)”. The “Expansion of Cells (including repeats* and recounts**) 3 μM” value in series [2] (percent of embryos with expanded kidney field, 3 μM) is recorded as “ND (All Dead)”.

On to `Cn1c(SCCCCCC(=O)Nc2ccccc2N)nc2ccccc21` [UPHD-00081, N-(2-aminophenyl)-6-[(1-methyl-1H-1,3-benzodiazol-2-yl)sulfanyl]hexanamide], for which, in series [2] (setting [5]), the responders at 0.2 µM is 0%, the responders at 0.4 µM stood at 10% and the responders at 0.8 µM was determined as 10%. For the same compound, the responders at 1.5 µM in series [2] (setting [6]) was 20%. The responders at 3 µM in series [2] (setting [7]) came to 32%. For the same compound, the pEC50 in series [2] is below 5.52.

In the case of `COC(=O)CCCCCSc1ccc(OC)cc1` [UPHD-00090, methyl 6-[(4-methoxy-phenyl)sulfanyl]hexanoate], in series [2] (setting [5]), the responders at 0.2 µM turned out to be 0%, the responders at 0.4 µM stood at 12% and the responders at 0.8 µM was determined as 25%. For the same compound, the responders at 1.5 µM in series [2] (setting [6]) came out at 26%. Also, the responders at 3 µM in series [2] (setting [7]) was 65%. The pEC50 in series [2] was 5.63.
